SMILES strings stand for the structures.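 Results reflect a 48-hour exposure of cells in 96-well plates to compound at five concentrations. GI50 = concentration required for 50% inhibition of growth.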 The source made the active and inactive calls. Cut-off read from the data, not from the text of the source: active = GI50 up to about 1.1 µM and inactive = higher.

Eleven compounds from ChEMBL document CHEMBL1201862, “PubChem BioAssay data set” (2004) can be followed below.

Some test systems named below: A498; CCRF-CEM; HCT-116; K562; LOX IMVI; M14; MDA-MB-231; MDA-MB-435; OVCAR-4; OVCAR-8; RPMI-8226; SK-MEL-2; SK-MEL-5; SN12C; SNB-75; SR; U-251; UACC-62; SNB-19; UO-31.
Experiment in all cases: NCI tumour cell line growth inhibition, 48 h

Turning to `CCOP(=O)(OCC)/C(=C/n1c(=S)[nH]c2ccccc21)C(=O)OC`, the GI50 in the experiment on A498, in the experiment on CCRF-CEM, with HCT-116, in the experiment on K562, in the experiment with LOX IMVI and in the experiment with M14 was > 100 µM (inactive) each time. Further, the GI50 in the experiment on MDA-MB-231 is > 100 µM (inactive); in the experiment with MDA-MB-435 it was > 100 µM (inactive); in the experiment with OVCAR-4, 45.1 µM (inactive); with OVCAR-8, > 100 µM (inactive); in the experiment with RPMI-8226 it was > 100 µM (inactive); with SK-MEL-2, > 100 µM (inactive). For the same compound, the GI50 in the experiment with SK-MEL-5 is > 100 µM (inactive); with SN12C it was > 100 µM (inactive); in the experiment on SNB-75, 34.4 µM (inactive); in the experiment with SR it was > 100 µM (inactive); in the experiment on U-251, > 100 µM (inactive); in the experiment with UACC-62, > 100 µM (inactive).

As for `CN1C(=O)c2ccc3ccccc3c2C1=O`, the GI50 with A498 was 47.3 µM (inactive); with CCRF-CEM it was > 100 µM (inactive); with HCT-116, 77.4 µM (inactive); with K562, > 100 µM (inactive); in the experiment on M14, > 100 µM (inactive); in the experiment with MDA-MB-231 it was > 100 µM (inactive). Also, the GI50 with MDA-MB-435, in the experiment with OVCAR-4, in the experiment on OVCAR-8, with RPMI-8226, in the experiment with SK-MEL-2 and in the experiment on SK-MEL-5 was > 100 µM (inactive) in each case. Besides, the GI50 with SN12C was > 100 µM (inactive); with SNB-19, > 100 µM (inactive); in the experiment on SNB-75 it was 27.9 µM (inactive); in the experiment on SR, > 100 µM (inactive); in the experiment with U-251, > 100 µM (inactive); with UACC-62, > 100 µM (inactive). Besides, the GI50 with UO-31 was > 100 µM (inactive).

As for `CSC1(SC)CCCCCCCCCCC1`, the GI50 was > 100 µM (inactive) with A498; 22.9 µM (inactive) in the experiment on CCRF-CEM; 17 µM (inactive) in the experiment on HCT-116; 32 µM (inactive) in the experiment with K562; 18.7 µM (inactive) with LOX IMVI; 47.5 µM (inactive) with M14. The GI50 in the experiment on MDA-MB-231 is 41.4 µM (inactive); in the experiment with MDA-MB-435 it was 38.9 µM (inactive); with OVCAR-4, 49.4 µM (inactive); with OVCAR-8, 45.5 µM (inactive); in the experiment with RPMI-8226, 78.5 µM (inactive); in the experiment with SK-MEL-2, 24 µM (inactive). In addition, the GI50 in the experiment on SK-MEL-5 is 35.2 µM (inactive); in the experiment on SN12C it was 70 µM (inactive); in the experiment with SNB-19 it was 53.5 µM (inactive); in the experiment on SR, 43.7 µM (inactive); in the experiment on U-251, 32.4 µM (inactive); with UACC-62, 46 µM (inactive). Also, the GI50 in the experiment with UO-31 was 31.3 µM (inactive).

Take `C=CCC1(Sc2ccccn2)Sc2ccc3ccccc3c2-c2c(ccc3ccccc23)S1`: the GI50 with A498, in the experiment with CCRF-CEM, in the experiment on HCT-116, in the experiment on K562, in the experiment on LOX IMVI and in the experiment with M14 was > 100 µM (inactive) each time. The GI50 in the experiment with MDA-MB-231, in the experiment with MDA-MB-435, with OVCAR-4, in the experiment with OVCAR-8, in the experiment on SK-MEL-2 and in the experiment on SK-MEL-5 was > 100 µM (inactive) throughout. The GI50 in the experiment on SN12C was > 100 µM (inactive); with SNB-19, > 100 µM (inactive); in the experiment with SNB-75, 55.7 µM (inactive); in the experiment with SR, > 100 µM (inactive); with U-251, > 100 µM (inactive); in the experiment with UACC-62, > 100 µM (inactive). Besides, in the experiment on UO-31, the GI50 was > 100 µM (inactive).

As to `COc1ccc(CCCNC(=O)Cc2cc(OC)c(OC)cc2CO)cc1OC`, the GI50 with A498, in the experiment with CCRF-CEM, in the experiment with HCT-116, in the experiment with K562, in the experiment on LOX IMVI and in the experiment on M14 was > 100 µM (inactive) throughout. The GI50 with MDA-MB-231, with MDA-MB-435, in the experiment on OVCAR-4, with OVCAR-8, in the experiment on SK-MEL-2 and with SK-MEL-5 was > 100 µM (inactive) in each case. For the same compound, the GI50 in the experiment with SN12C, in the experiment on SNB-19, in the experiment on SNB-75, in the experiment with SR, with U-251 and in the experiment on UACC-62 was > 100 µM (inactive) each time. For the same compound, in the experiment on UO-31, the GI50 is > 100 µM (inactive).

`N#CC1C(=O)N(c2ccccc2)NC12OC(=O)c1ccncc12` (centres undefined): the GI50 with A498, in the experiment with CCRF-CEM, in the experiment on HCT-116, in the experiment with K562, with LOX IMVI and with M14 was > 20 µM (inactive) each time. In addition, the GI50 in the experiment with MDA-MB-231, with MDA-MB-435, with OVCAR-4, with OVCAR-8, in the experiment on RPMI-8226 and with SK-MEL-2 was > 20 µM (inactive) in each case. Moreover, the GI50 with SK-MEL-5, with SN12C, with SNB-19, in the experiment on SR, in the experiment with U-251 and in the experiment on UACC-62 was > 20 µM (inactive) each time. Moreover, in the experiment on UO-31, the GI50 was > 20 µM (inactive).

Regarding `C[N+]1(C)C(c2ccccc2)C(=O)O[B@-]1(F)c1ccccc1` (some centres undefined), the GI50 in the experiment with A498 was 25.7 µM (inactive); in the experiment on CCRF-CEM, > 100 µM (inactive); with HCT-116 it was > 100 µM (inactive); with K562 it was > 100 µM (inactive); in the experiment with LOX IMVI, > 100 µM (inactive); with M14, > 100 µM (inactive). The GI50 in the experiment with MDA-MB-231, in the experiment on MDA-MB-435, in the experiment on OVCAR-4, in the experiment with OVCAR-8, in the experiment on RPMI-8226 and in the experiment on SK-MEL-5 was > 100 µM (inactive) in each case. Further, the GI50 in the experiment with SN12C was > 100 µM (inactive); in the experiment on SNB-19, > 100 µM (inactive); in the experiment on SNB-75 it was 60.3 µM (inactive); with SR it was > 100 µM (inactive); with U-251, > 100 µM (inactive); in the experiment with UACC-62, > 100 µM (inactive). For the same compound, the GI50 with UO-31 is > 100 µM (inactive).

With `CC(C)(C)C1CCC2c3c([nH]c4ccccc34)C3C(=O)N(c4ccccc4[N+](=O)[O-])C(=O)C3C2C1` (centres undefined), the GI50 with A498 was 15.5 µM (inactive); with CCRF-CEM it was 12.6 µM (inactive); in the experiment with HCT-116, 7.48 µM (inactive); in the experiment on K562, 11.9 µM (inactive); in the experiment on LOX IMVI it was 11.9 µM (inactive); in the experiment on M14 it was 13.8 µM (inactive). Besides, the GI50 is 10.6 µM (inactive) in the experiment with MDA-MB-231; 19.1 µM (inactive) in the experiment with MDA-MB-435; 16.6 µM (inactive) in the experiment with OVCAR-8; 17.5 µM (inactive) in the experiment on RPMI-8226; 14.9 µM (inactive) in the experiment with SK-MEL-2; 13.5 µM (inactive) with SK-MEL-5. Besides, the GI50 with SN12C was 14.6 µM (inactive); with SNB-19, 19.3 µM (inactive); in the experiment with SR it was 9.64 µM (inactive); in the experiment with U-251, 16 µM (inactive); with UACC-62 it was 12.2 µM (inactive); in the experiment with UO-31, 20.4 µM (inactive).

Take `COc1ccc(/N=N/c2c(C)c(C#N)c(=S)n(C3OC(COC(C)=O)C(OC(C)=O)C(OC(C)=O)C3OC(C)=O)c2-c2ccccc2)cc1` (centres undefined): the GI50 in the experiment on A498 was 1.5 µM (inactive); with CCRF-CEM, 4.94 µM (inactive); with HCT-116, 4.32 µM (inactive); with K562, 4.52 µM (inactive); in the experiment with LOX IMVI, 5.42 µM (inactive); with M14, 1.94 µM (inactive). Besides, the GI50 with MDA-MB-231 was 6.04 µM (inactive); with MDA-MB-435, 10.3 µM (inactive); with OVCAR-4, 3.15 µM (inactive); with RPMI-8226 it was 5.65 µM (inactive); with SK-MEL-2 it was 8.04 µM (inactive); in the experiment on SN12C it was 7.96 µM (inactive). Besides, the GI50 with SNB-19 was 11 µM (inactive); with SR, 4.07 µM (inactive); in the experiment with U-251, 10.7 µM (inactive); with UO-31, 39.8 µM (inactive).

Regarding `O=c1c2ccccc2c2c1c1c3ccccc3c(=O)c1c1c3ccccc3c(=O)c21`, the GI50 in the experiment on A498, in the experiment on CCRF-CEM, in the experiment with HCT-116, with K562, with LOX IMVI and in the experiment with M14 was > 100 µM (inactive) each time. Also, the GI50 with MDA-MB-231, in the experiment with MDA-MB-435, in the experiment on OVCAR-8, in the experiment with RPMI-8226, with SK-MEL-2 and in the experiment on SK-MEL-5 was > 100 µM (inactive) each time. In addition, the GI50 in the experiment on SN12C, in the experiment on SNB-19, with SNB-75, with SR, in the experiment on U-251 and with UACC-62 was > 100 µM (inactive) in each case. For the same compound, the GI50 with UO-31 is > 100 µM (inactive).

Consider `COc1ccc(Nc2nc(N)c(C(=O)c3ccco3)s2)cc1`, for which the GI50 in the experiment with A498 is 13.2 µM (inactive); in the experiment with CCRF-CEM, 5.47 µM (inactive); in the experiment on HCT-116, 9.23 µM (inactive); in the experiment with K562, 4.72 µM (inactive); with LOX IMVI it was 32.5 µM (inactive); in the experiment with M14, 65.2 µM (inactive). For the same compound, the GI50 in the experiment with MDA-MB-231 is > 88.1 µM (inactive); with MDA-MB-435 it was 3.15 µM (inactive); in the experiment on OVCAR-4, > 48.1 µM (inactive); in the experiment on OVCAR-8, > 100 µM (inactive); with RPMI-8226, 16.6 µM (inactive); in the experiment on SK-MEL-2 it was 23 µM (inactive). The GI50 in the experiment on SK-MEL-5 is 14.5 µM (inactive); in the experiment with SN12C, > 70.8 µM (inactive); in the experiment with SNB-19, > 56.5 µM (inactive); in the experiment on SR, 0.955 µM (active); in the experiment on U-251, 40.4 µM (inactive); with UACC-62 it was 45.8 µM (inactive). In the experiment on UO-31, the GI50 was 29.3 µM (inactive).
